According to patent publication US11725011B2, “Bicyclic urea kinase inhibitors and uses thereof” (The Broad Institute, Inc., priority 2016, dated 2023):

How the values were obtained:
FLT3 (R834Q) = FLT3 (R834Q) (Homo sapiens (Human), UniProt P36888, R834Q); test: KINOMEscan; assay type: binding; details: 1 uM
ADCK4 = ADCK4 (Homo sapiens (Human), UniProt Q96D53); test: KINOMEscan; assay type: binding; details: 1 uM
CIT = CIT (Homo sapiens (Human), UniProt O14578); test: KINOMEscan; assay type: binding; details: 1 uM
MEK3 = MEK3 (Homo sapiens (Human), UniProt P46734); test: KINOMEscan; assay type: binding; details: 1 uM
LIMK1 = LIMK1 (Homo sapiens (Human), UniProt P53667); test: KINOMEscan; assay type: binding; details: 1 uM
TAOK3 = TAOK3 (Homo sapiens (Human), UniProt Q9H2K8); test: KINOMEscan; assay type: binding; details: 1 uM
PIK3C2B = PIK3C2B (Homo sapiens (Human), UniProt O00750); test: KINOMEscan; assay type: binding; details: 1 uM
MAST1 = MAST1 (Homo sapiens (Human), UniProt Q9Y2H9); test: KINOMEscan; assay type: binding; details: 1 uM
PHKG2 = PHKG2 (Homo sapiens (Human), UniProt P15735); test: KINOMEscan; assay type: binding; details: 1 uM
PHKG2, sequence (P15735 whole entry): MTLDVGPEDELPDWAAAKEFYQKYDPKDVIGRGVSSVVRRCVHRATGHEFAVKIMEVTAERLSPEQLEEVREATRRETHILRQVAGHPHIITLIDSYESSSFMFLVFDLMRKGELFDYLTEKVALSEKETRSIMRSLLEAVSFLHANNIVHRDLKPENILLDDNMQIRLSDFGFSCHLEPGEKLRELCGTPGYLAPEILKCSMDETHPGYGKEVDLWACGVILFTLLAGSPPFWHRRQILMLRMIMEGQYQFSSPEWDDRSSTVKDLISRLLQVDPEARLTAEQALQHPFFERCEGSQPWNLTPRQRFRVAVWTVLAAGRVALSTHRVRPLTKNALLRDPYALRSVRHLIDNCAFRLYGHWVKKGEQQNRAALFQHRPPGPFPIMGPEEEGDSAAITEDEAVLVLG

STK33 = STK33 (Homo sapiens (Human), UniProt Q9BYT3); test: KINOMEscan; assay type: binding; details: 1 uM
ERBB4 = ERBB4 (Homo sapiens (Human), UniProt Q15303); test: KINOMEscan; assay type: binding; details: 1 uM
ERBB4, sequence (Q15303 26-1308): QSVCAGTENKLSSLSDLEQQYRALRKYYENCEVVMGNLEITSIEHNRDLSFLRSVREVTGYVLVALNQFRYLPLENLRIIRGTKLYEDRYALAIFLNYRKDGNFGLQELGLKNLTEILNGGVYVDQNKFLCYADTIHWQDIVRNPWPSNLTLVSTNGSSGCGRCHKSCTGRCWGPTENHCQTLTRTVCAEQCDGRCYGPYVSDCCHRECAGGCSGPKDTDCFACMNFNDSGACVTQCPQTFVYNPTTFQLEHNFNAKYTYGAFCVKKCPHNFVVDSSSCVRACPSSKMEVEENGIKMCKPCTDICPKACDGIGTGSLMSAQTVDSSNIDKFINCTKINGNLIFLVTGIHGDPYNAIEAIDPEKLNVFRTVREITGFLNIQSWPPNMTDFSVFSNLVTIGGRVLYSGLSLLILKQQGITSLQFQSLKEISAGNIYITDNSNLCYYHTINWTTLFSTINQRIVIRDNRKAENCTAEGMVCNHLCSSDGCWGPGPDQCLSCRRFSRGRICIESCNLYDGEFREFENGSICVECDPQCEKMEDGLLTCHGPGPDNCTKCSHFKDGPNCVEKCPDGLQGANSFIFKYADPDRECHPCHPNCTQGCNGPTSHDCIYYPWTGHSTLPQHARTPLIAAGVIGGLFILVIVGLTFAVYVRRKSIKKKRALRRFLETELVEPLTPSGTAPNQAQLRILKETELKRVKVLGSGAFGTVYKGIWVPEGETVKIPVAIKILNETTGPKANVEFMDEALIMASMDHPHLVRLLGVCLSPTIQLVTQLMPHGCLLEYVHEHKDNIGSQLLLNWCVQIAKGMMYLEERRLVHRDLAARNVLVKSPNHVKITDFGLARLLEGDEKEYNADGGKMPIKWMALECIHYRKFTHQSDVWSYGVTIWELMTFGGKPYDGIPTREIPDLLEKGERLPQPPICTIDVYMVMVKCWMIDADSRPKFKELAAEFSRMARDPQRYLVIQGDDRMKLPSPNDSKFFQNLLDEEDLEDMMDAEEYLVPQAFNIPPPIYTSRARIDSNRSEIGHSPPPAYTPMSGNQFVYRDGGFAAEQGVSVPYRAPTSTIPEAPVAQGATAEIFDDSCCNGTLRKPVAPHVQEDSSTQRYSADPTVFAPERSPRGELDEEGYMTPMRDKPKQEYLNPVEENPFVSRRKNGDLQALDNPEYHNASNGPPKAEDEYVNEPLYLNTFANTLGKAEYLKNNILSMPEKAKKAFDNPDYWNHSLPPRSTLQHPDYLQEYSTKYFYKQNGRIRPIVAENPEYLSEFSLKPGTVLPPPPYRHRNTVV

DYRK2 = DYRK2 (Homo sapiens (Human), UniProt Q92630); test: KINOMEscan; assay type: binding; details: 1 uM
CDKL3 = CDKL3 (Homo sapiens (Human), UniProt Q8IVW4); test: KINOMEscan; assay type: binding; details: 1 uM
CDKL1 = CDKL1 (Homo sapiens (Human), UniProt Q00532); test: KINOMEscan; assay type: binding; details: 1 uM
[1] = qAC50 biological assay (Table 4)
SRC = SRC (Homo sapiens (Human), UniProt P12931); test: KINOMEscan; assay type: binding; details: 1 uM
ALK (L1196M) = ALK (L1196M) (Homo sapiens (Human), UniProt Q9UM73, L1196M); test: KINOMEscan; assay type: binding; details: 1 uM
CAMK2D = CAMK2D (Homo sapiens (Human), UniProt Q13557); test: KINOMEscan; assay type: binding; details: 1 uM
PIK3CA (E542K) = PIK3CA (E542K) (Homo sapiens (Human), UniProt P42336, E542K); test: KINOMEscan; assay type: binding; details: 1 uM
MAP4K3 = MAP4K3 (Homo sapiens (Human), UniProt Q8IVH8); test: KINOMEscan; assay type: binding; details: 1 uM
CDK8 = CDK8 (Homo sapiens (Human), UniProt P49336); test: KINOMEscan; assay type: binding; details: 1 uM
LATS1 = LATS1 (Homo sapiens (Human), UniProt O95835); test: KINOMEscan; assay type: binding; details: 1 uM
MARK2 = MARK2 (Homo sapiens (Human), UniProt Q7KZI7); test: KINOMEscan; assay type: binding; details: 1 uM
SLK = SLK (Homo sapiens (Human), UniProt Q9H2G2); test: KINOMEscan; assay type: binding; details: 1 uM
CAMKK1 = CAMKK1 (Homo sapiens (Human), UniProt Q8N5S9); test: KINOMEscan; assay type: binding; details: 1 uM
WNK3 = WNK3 (Homo sapiens (Human), UniProt Q9BYP7); test: KINOMEscan; assay type: binding; details: 1 uM
PDGFRA = PDGFRA (Homo sapiens (Human), UniProt P16234); test: KINOMEscan; assay type: binding; details: 1 uM
LYN = LYN (Homo sapiens (Human), UniProt P07948); test: KINOMEscan; assay type: binding; details: 1 uM
LRRK2 (G2019S) = LRRK2 (G2019S) (Homo sapiens (Human), UniProt Q5S007, G2019S); test: KINOMEscan; assay type: binding; details: 1 uM
MET (Y1235D) = MET (Y1235D) (Homo sapiens (Human), UniProt P08581, Y1235D); test: KINOMEscan; assay type: binding; details: 1 uM
GAK = GAK (Homo sapiens (Human), UniProt O14976); test: KINOMEscan; assay type: binding; details: 1 uM
FGFR1 = FGFR1 (Homo sapiens (Human), UniProt P11362); test: KINOMEscan; assay type: binding; details: 1 uM
FGFR1, sequence (P11362 22-822): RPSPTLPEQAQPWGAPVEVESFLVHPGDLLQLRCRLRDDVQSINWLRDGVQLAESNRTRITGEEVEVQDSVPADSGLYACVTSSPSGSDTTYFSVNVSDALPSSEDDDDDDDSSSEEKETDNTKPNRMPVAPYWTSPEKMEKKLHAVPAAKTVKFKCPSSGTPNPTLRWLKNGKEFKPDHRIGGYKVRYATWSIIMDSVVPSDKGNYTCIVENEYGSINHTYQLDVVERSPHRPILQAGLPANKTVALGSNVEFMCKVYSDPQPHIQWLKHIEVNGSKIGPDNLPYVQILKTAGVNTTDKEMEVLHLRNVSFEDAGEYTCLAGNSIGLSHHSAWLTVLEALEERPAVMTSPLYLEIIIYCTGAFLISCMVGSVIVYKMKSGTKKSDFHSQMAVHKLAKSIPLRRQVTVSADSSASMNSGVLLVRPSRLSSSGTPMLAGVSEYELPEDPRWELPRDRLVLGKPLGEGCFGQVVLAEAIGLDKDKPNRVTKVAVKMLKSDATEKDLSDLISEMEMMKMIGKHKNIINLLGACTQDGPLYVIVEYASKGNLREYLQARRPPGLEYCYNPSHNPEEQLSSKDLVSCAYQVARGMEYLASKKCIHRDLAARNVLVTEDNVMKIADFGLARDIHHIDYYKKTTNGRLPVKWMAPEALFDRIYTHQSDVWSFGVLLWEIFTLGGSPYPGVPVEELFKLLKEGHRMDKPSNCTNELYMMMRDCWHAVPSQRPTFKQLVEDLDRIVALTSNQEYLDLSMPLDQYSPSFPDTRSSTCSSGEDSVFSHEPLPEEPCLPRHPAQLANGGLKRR

MET = MET (Homo sapiens (Human), UniProt P08581); test: KINOMEscan; assay type: binding; details: 1 uM
RET (M918T) = RET (M918T) (Homo sapiens (Human), UniProt P07949, M918T); test: KINOMEscan; assay type: binding; details: 1 uM
CSNK1G2 = CSNK1G2 (Homo sapiens (Human), UniProt P78368); test: KINOMEscan; assay type: binding; details: 1 uM
NDR1 = NDR1 (Homo sapiens (Human), UniProt Q15208); test: KINOMEscan; assay type: binding; details: 1 uM
ERK5 = ERK5 (Homo sapiens (Human), UniProt Q13164); test: KINOMEscan; assay type: binding; details: 1 uM
[2] = molecular target: RSK4 (Kin.Dom.2-C-terminal) (Homo sapiens (Human), UniProt Q9UK32); test: KINOMEscan; assay type: binding; details: 1 uM
RSK4 (Kin.Dom.2-C-terminal), sequence (Q9UK32 426-683): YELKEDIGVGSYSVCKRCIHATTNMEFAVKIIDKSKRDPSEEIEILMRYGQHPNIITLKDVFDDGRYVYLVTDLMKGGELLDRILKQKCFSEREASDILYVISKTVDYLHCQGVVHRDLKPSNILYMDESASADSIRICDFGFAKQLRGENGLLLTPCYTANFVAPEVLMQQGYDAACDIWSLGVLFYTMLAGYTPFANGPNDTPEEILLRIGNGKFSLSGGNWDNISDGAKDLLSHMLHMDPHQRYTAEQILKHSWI

ERK3 = ERK3 (Homo sapiens (Human), UniProt Q16659); test: KINOMEscan; assay type: binding; details: 1 uM
ERK3, sequence (Q16659 whole entry): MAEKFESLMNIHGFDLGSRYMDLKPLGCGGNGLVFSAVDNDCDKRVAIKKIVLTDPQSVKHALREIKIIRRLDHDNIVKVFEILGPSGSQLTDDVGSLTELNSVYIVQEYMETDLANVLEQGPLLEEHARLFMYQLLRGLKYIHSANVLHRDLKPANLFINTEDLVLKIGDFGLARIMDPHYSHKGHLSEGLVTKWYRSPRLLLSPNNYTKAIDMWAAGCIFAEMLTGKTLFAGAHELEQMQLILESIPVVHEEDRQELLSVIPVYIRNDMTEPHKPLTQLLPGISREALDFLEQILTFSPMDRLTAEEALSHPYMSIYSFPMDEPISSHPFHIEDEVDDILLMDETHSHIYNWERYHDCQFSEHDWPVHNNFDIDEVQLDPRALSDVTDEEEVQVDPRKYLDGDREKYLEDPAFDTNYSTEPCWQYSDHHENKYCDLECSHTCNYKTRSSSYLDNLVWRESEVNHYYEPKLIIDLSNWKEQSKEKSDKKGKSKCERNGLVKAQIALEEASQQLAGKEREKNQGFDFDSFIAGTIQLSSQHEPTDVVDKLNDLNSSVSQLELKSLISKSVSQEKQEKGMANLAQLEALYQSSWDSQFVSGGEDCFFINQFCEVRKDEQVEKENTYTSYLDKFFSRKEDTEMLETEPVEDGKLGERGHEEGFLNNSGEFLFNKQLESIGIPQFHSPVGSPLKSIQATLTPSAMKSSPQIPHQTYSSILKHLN

MAP3K15 = MAP3K15 (Homo sapiens (Human), UniProt Q6ZN16); test: KINOMEscan; assay type: binding; details: 1 uM
MAP3K15, sequence (Q6ZN16 whole entry): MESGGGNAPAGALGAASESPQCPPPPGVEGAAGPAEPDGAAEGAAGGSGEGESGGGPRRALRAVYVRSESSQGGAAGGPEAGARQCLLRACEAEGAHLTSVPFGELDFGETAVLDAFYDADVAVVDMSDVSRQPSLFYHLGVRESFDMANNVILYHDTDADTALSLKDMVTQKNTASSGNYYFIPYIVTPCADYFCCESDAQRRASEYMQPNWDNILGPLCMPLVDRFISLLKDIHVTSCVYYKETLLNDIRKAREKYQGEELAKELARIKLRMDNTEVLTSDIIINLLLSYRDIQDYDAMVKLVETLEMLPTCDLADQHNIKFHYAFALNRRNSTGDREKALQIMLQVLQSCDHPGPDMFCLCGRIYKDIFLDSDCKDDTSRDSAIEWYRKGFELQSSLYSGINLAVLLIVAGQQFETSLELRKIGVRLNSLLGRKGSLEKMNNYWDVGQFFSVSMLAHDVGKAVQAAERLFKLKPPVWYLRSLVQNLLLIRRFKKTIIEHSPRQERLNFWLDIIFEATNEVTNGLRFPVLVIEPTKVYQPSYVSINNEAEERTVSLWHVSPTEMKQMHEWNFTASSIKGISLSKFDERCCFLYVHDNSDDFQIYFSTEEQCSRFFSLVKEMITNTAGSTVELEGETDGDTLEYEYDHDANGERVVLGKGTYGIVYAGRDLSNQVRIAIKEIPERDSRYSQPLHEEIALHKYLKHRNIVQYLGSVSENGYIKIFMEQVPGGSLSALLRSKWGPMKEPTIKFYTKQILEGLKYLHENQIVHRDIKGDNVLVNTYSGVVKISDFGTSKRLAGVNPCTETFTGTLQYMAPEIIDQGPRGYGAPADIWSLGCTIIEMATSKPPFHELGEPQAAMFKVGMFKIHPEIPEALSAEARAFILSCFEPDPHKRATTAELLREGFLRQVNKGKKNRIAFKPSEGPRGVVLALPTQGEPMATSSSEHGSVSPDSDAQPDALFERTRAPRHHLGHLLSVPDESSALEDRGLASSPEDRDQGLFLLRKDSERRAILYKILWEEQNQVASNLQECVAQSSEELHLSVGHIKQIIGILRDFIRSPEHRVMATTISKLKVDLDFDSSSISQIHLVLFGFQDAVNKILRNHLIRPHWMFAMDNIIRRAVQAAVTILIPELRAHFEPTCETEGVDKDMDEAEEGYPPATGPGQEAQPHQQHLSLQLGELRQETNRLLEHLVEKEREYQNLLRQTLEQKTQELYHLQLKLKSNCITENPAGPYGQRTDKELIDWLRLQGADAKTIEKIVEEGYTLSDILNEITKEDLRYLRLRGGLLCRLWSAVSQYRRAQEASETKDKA

MST1R = MST1R (Homo sapiens (Human), UniProt Q04912); test: KINOMEscan; assay type: binding; details: 1 uM

Structure (SMILES): COc1ccc(N2C(=O)N(c3c(C)cccc3C)Cc3cnc(Nc4ccc(N5CCN(C)CC5)cc4)nc32)c(OC)c1 [HG-11-136-01]
- KINOMEscan FLT3 (R834Q) (FLT3 (R834Q)): 48
- KINOMEscan ADCK4 (ADCK4): 44
- KINOMEscan CIT (CIT): 58
- KINOMEscan MEK3 (MEK3): 6.4
- KINOMEscan LIMK1 (LIMK1): 0.05
- KINOMEscan TAOK3 (TAOK3): 1.8
- KINOMEscan PIK3C2B (PIK3C2B): 0.55
- KINOMEscan MAST1 (MAST1): 62
- KINOMEscan PHKG2 (PHKG2): 93
- KINOMEscan STK33 (STK33): 24
- KINOMEscan ERBB4 (ERBB4): 0.2
- KINOMEscan DYRK2 (DYRK2): 5
- KINOMEscan CDKL3 (CDKL3): 58
- KINOMEscan CDKL1 (CDKL1): 84
- qAC50 [1]: 171 nM
- Data Mode ([1]; curve direction of qAC50 data): decreasing
- KINOMEscan SRC (SRC): 0.15
- KINOMEscan ALK (L1196M) (ALK (L1196M)): 8.2
- KINOMEscan CAMK2D (CAMK2D): 100
- KINOMEscan PIK3CA (E542K) (PIK3CA (E542K)): 88
- KINOMEscan MAP4K3 (MAP4K3): 1.8
- KINOMEscan CDK8 (CDK8): 100
- KINOMEscan LATS1 (LATS1): 100
- KINOMEscan MARK2 (MARK2): 3.7
- KINOMEscan SLK (SLK): 0.1
- KINOMEscan CAMKK1 (CAMKK1): 94
- KINOMEscan WNK3 (WNK3): 50
- KINOMEscan PDGFRA (PDGFRA): 0.5
- KINOMEscan LYN (LYN): 0
- KINOMEscan LRRK2 (G2019S) (LRRK2 (G2019S)): 6.6
- KINOMEscan MET (Y1235D) (MET (Y1235D)): 61
- KINOMEscan GAK (GAK): 6.8
- KINOMEscan FGFR1 (FGFR1): 0.15
- KINOMEscan MET (MET): 66
- KINOMEscan RET (M918T) (RET (M918T)): 0.05
- KINOMEscan CSNK1G2 (CSNK1G2): 100
- KINOMEscan NDR1 (NDR1): 46
- KINOMEscan ERK5 (ERK5): 84
- KINOMEscan RSK4 (Kin.Dom.2-C-terminal) [2]: 4
- KINOMEscan ERK3 (ERK3): 81
- KINOMEscan MAP3K15 (MAP3K15): 40
- KINOMEscan MST1R (MST1R): 100
